From patent US5965701A, “Kappa receptor opioid peptides” (priority 1997, dated 1999)
Where “and” joins values, the source holds several entries; their conditions need not be identical. Equal entries are not always repeated. Where a SMILES comes first, the peptide text is derived from it. [ ]: non-standard residue; d: D form. The star is where a group is joined. dPhe(3,4-Cl2) = N[C@H](Cc1ccc(Cl)c(Cl)c1)C(=O)O; dPhe(4-CH2NH2) = NCc1ccc(C[C@@H](N)C(=O)O)cc1; dPhe(4-Cl) = N[C@H](Cc1ccc(Cl)cc1)C(=O)O; dPhe(4-F) = N[C@H](Cc1ccc(F)cc1)C(=O)O; d2Nal = N[C@H](Cc1ccc2ccccc2c1)C(=O)O; NH(thiazol-2-yl) = c1csc(N*)n1; d2Thi = N[C@H](Cc1cccs1)C(=O)O; NH(3-picolyl) = c1cncc(CN*)c1; NH(4-picolyl) = c1cc(CN*)ccn1; dNle = CCCC[C@@H](N)C(=O)O; Morpholide = C1CN(*)CCO1; Piperidide = C1CCN(*)CC1; NHBn = c1ccc(CN*)cc1; NHCH2CH2OH = OCCN*; X2 = OC1CCN(*)CC1; X1 = C1CN(*)CCS1; NHBu = CCCCN*

Legend:
[1] = tested on: conscious male ICR mice; assay: Mouse acetic acid writhing test (WT); assay type: in vivo; settings: for WT-ED50: i.v., 5 minutes before acetic acid i.p., writhes over 15 minutes; for % Antinociception 1 hr / % Antinociception 2 hr: submaximal effective dose i.v., percentage of the activity found at -5 min; for % Antinociception 1 hr: 60 min pretreatment; for % Antinociception 2 hr: 120 min pretreatment
Experimental: Selected peptides that are identified in Tables A-G have been further specifically subjected to in vivo testing for determination of duration of action of their opioid properties, and the results are reported in Table H hereinafter. The peptide numbers correspond to those in the earlier tables and the figures with regard to μ/K ratio are simply carried over for reference purposes. The in vivo testing is carried out using a mouse writhing test (WT) that is well-suited for determining the length of duration of antinociceptive biological activity. This test is described in detail in an article by G. A. Bentley et al., Br. J. Phamac., 73:325-332, 1981, and it employs conscious male ICR mice which are purchased from Harlan and which weigh between 20 and 30 grams. The mice are fasted for 12 to 16 hours prior to beginning the test. The nociceptive behavior, i.e. writhing, to be monitored is induced by the intraperitoneal (i.p.) administration of dilute acetic acid. 10 milliliters of 0.6% aqueous acetic acid is used per kg of body weight. Writhing is scored during the 15 minutes following acetic acid administration. In a first step, compounds are tested at 3 to 4 increasing doses, given by intravenous route, and at one unique pretreatment time (-5 minutes before acetic acid injection). […] In a second step, this submaximal effective dose for each specific peptide is administered at various pretreatment times (i.e. -5 minutes, -60 minutes, -120 minutes and -180 minutes) prior to the administration of the acetic acid in order to determine the duration of action. Throughout the test, a control group of mice are used which are administered only the vehicle without the candidate peptide. The number of writhes are counted over a 15-minute period, starting from the time of acetic acid injection, and bioactivity, i.e. antinociception, is expressed as a percentage, and is calculated as follows:
100×(writhes in control group-writhes in treated group)/writhes in
Values higher than 100% indicate greater antinociception than at the beginning of the experiment. It is felt that the opioid peptide should be effective to reduce writhing by at least about 25% at a time of 1 hour to be considered to have long duration of in vivo action.
In addition to using this test to determine duration of antinociceptive activity, it is also used to measure the in vivo biopotency (short term) of the peptide. This value is given in the table under the heading WT-ED50 in milligrams per kg of body weight. The value is a measure of the dosage necessary to reduce the number of writhes in the mouse being tested by 50% (as compared to a control mouse) over a period of 15 minutes.

[2] = target: T1, cloned human mu opioid (hMOR) receptor (Homo sapiens, UniProt P35372); assay: Competition binding at cloned hMOR, displacement of 3H-DAMGO; settings: hMOR stably expressed in HN.9.10 cells, read-out: Ki MOR
T1 construct: expressed in transfected cells; host or cells: HN9.10 (mouse hippocampal neuroblastoma), stably transfected
T1 sequence (P35372 whole entry): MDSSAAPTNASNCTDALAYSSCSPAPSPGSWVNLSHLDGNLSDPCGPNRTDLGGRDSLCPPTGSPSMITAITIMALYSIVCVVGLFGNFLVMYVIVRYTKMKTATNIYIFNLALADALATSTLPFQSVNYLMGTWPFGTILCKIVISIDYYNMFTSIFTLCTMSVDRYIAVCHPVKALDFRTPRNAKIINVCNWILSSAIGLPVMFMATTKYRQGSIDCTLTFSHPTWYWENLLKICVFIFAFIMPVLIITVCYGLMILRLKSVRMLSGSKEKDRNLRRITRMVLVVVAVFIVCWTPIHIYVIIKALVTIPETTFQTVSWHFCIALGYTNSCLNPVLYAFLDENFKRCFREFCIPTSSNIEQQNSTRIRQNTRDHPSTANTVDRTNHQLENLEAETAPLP

[3] = target: T2, cloned human kappa (hKOR) receptor (Homo sapiens, UniProt P41145); assay: biochemical; assay type: binding; settings: for μ/κ Ratio (binding affinity for KOR versus MOR): Ki MOR / Ki KOR; for Ki: read-out: Ki KOR
T2 construct: expressed in transfected cells; host or cells: HN9.10 (mouse hippocampal neuroblastoma), stably transfected
T2 sequence (P41145 whole entry): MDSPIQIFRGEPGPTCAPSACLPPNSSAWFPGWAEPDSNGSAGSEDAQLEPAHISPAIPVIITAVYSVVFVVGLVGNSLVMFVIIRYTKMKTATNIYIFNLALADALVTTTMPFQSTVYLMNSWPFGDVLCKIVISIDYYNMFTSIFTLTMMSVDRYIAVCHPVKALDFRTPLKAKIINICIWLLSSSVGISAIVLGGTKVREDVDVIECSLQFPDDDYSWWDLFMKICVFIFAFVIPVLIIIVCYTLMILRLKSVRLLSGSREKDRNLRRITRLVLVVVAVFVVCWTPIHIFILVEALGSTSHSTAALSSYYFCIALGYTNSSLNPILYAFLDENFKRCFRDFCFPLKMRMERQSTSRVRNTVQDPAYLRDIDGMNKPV

| Compound | WT-ED50 [1] | % Antinociception 1 hr [1] | % Antinociception 2 hr [1] | Ki [2] | μ/κ Ratio (binding affinity for KOR versus MOR) [3] | Ki [3] |
| --- | --- | --- | --- | --- | --- | --- |
| CCCC[C@@H](NC(=O)[C@@H](Cc1ccccc1)NC(=O)[C@H](N)Cc1ccccc1)C(=O)N[C@H](CCCNC(=N)N)C(=O)NC [Peptide 2, H-D-Phe-D-Phe-D-Nle-D-Arg-NHMe] (H-[dF][dF][dNle][dR]-NHMe) | 0.14 mg/kg | 70.5% | 29.8% | 3620 nM | 60,000 | 0.06 nM |
| CCCCNC(=O)[C@@H](CCCNC(=N)N)NC(=O)[C@@H](CCCC)NC(=O)[C@@H](Cc1ccccc1)NC(=O)[C@H](N)Cc1ccccc1 [Peptide 4, H-D-Phe-D-Phe-D-Nle-D-Arg-NHBu] (H-[dF][dF][dNle][dR]-NHBu) | 0.3 mg/kg and 0.30 mg/kg | 49.3% |  | 1370 nM | 7,200 | 0.19 nM |
| CCCC[C@@H](NC(=O)[C@@H](Cc1ccccc1)NC(=O)[C@H](N)Cc1ccccc1)C(=O)N[C@H](CCCNC(=N)N)C(=O)NCCO [Peptide 9, H-D-Phe-D-Phe-D-Nle-D-Arg-NHhEt] (H-[dF][dF][dNle][dR]-NHCH2CH2OH) | 0.03 mg/kg | 72.5% | 39.5% | 1010 nM | 2,500 | 0.4 nM |
| CCCC[C@@H](NC(=O)[C@@H](Cc1ccccc1)NC(=O)[C@H](N)Cc1ccccc1)C(=O)N[C@H](CCCNC(=N)N)C(=O)N1CCSCC1 [Peptide 10, H-D-Phe-D-Phe-D-Nle-D-Arg-Tmo] (H-[dF][dF][dNle][dR]-X1) | 0.067 mg/kg and 0.07 mg/kg | 81.6% | 47.5% | 2260 nM | 25,000 | 0.09 nM |
| CCCC[C@@H](NC(=O)[C@@H](Cc1ccccc1)NC(=O)[C@H](N)Cc1ccccc1)C(=O)N[C@H](CCCNC(=N)N)C(=O)N1CCC(O)CC1 [Peptide 11, H-D-Phe-D-Phe-D-Nle-D-Arg-4-HyP] (H-[dF][dF][dNle][dR]-X2) | 0.073 mg/kg and 0.07 mg/kg | 61.8% | 36.9% | 3700 nM | 62,000 | 0.06 nM |
| CCCC[C@@H](NC(=O)[C@@H](Cc1ccccc1)NC(=O)[C@H](N)Cc1ccccc1)C(=O)N[C@H](CCCNC(=N)N)C(=O)N1CCCCC1 [Peptide 12, H-D-Phe-D-Phe-D-Nle-D-Arg-Pip] (H-[dF][dF][dNle][dR]-Piperidide) | 0.07 mg/kg | 60.5% | 53.6% | 1050 nM | 7,000 | 0.15 nM |
| CCCC[C@@H](NC(=O)[C@@H](Cc1ccccc1)NC(=O)[C@H](N)Cc1ccccc1)C(=O)N[C@H](CCCNC(=N)N)C(=O)Nc1nccs1 [Peptide 13, H-D-Phe-D-Phe-D-Nle-D-Arg-NH(2-Tzl)] (H-[dF][dF][dNle][dR]-{NH(thiazol-2-yl)}) | 0.44 mg/kg | 30.7% |  | 1590 nM | 2,700 | 0.59 nM |
| CCCC[C@@H](NC(=O)[C@@H](Cc1ccccc1)NC(=O)[C@H](N)Cc1ccccc1)C(=O)N[C@H](CCCNC(=N)N)C(=O)NCc1ccccc1 [Peptide 14, H-D-Phe-D-Phe-D-Nle-D-Arg-NHBzl] (H-[dF][dF][dNle][dR]-NHBn) | 0.14 mg/kg | 36% |  | 890 nM | 2,000 | 0.44 nM |
| CCCC[C@@H](NC(=O)[C@@H](Cc1ccccc1)NC(=O)[C@H](N)Cc1ccccc1)C(=O)N[C@H](CCCNC(=N)N)C(=O)NCc1cccnc1 [Peptide 54, H-D-Phe-D-Phe-D-Nle-D-Arg-NH(3Pic)] (H-[dF][dF][dNle][dR]-{NH(3-picolyl)}) |  |  |  | 1220 nM | 3,100 | 0.39 nM |
| CCCC[C@@H](NC(=O)[C@@H](Cc1ccccc1)NC(=O)[C@H](N)Cc1ccccc1)C(=O)N[C@H](Cc1ccc(CN)cc1)C(=O)NCC [Peptide 55, H-D-Phe-D-Phe-D-Nle-D-Amf-NHEt] (H-[dF][dF][dNle][dPhe(4-CH2NH2)]-NHEt) |  |  |  | 1750 nM | 12,500 | 0.14 nM |
| CC(C)C[C@@H](NC(=O)[C@@H](Cc1ccc(Cl)cc1)NC(=O)[C@H](N)Cc1cccs1)C(=O)N[C@H](CCCNC(=N)N)C(=O)N1CCOCC1 [Peptide 59, H-D-Ala(2Thi)-D-4Cpa-D-Leu-D-Arg-Mor] (H-[d2Thi][dPhe(4-Cl)][dL][dR]-Morpholide) |  |  |  | 3360 nM |  | 0.25 nM |
| CC(C)C[C@@H](NC(=O)[C@@H](Cc1ccc(Cl)c(Cl)c1)NC(=O)[C@H](N)Cc1cccs1)C(=O)N[C@H](CCCNC(=N)N)C(=O)N1CCOCC1 [Peptide 61, H-D-Ala(2Thi)-D-3,4Cpa-D-Leu-D-Arg-Mor] (H-[d2Thi][dPhe(3,4-Cl2)][dL][dR]-Morpholide) |  |  |  | 1560 nM | 10,400 | 0.15 nM |
| CC(C)C[C@@H](NC(=O)[C@@H](Cc1ccc2ccccc2c1)NC(=O)[C@H](N)Cc1ccc(F)cc1)C(=O)N[C@H](CCCNC(=N)N)C(=O)N1CCOCC1 [Peptide 62, H-D-4Fpa-D-2Nal-D-Leu-D-Arg-Mor] (H-[dPhe(4-F)][d2Nal][dL][dR]-Morpholide) |  |  |  | 1140 nM | 3,500 | 0.33 nM |
| CC(C)C[C@@H](NC(=O)[C@@H](Cc1ccc(Cl)cc1)NC(=O)[C@H](N)Cc1cccs1)C(=O)N[C@H](CCCNC(=N)N)C(=O)NCc1ccncc1 [Peptide 64, H-D-Ala(2Thi)-D-4Cpa-D-Leu-D-Arg-NH(4Pic)] (H-[d2Thi][dPhe(4-Cl)][dL][dR]-{NH(4-picolyl)}) |  |  |  | 2380 nM |  | 0.31 nM |
| CC(C)C[C@@H](NC(=O)[C@@H](Cc1ccc(Cl)cc1)NC(=O)[C@H](N)Cc1ccc(F)cc1)C(=O)N[C@H](CCCNC(=N)N)C(=O)N1CCOCC1 [Peptide 65, H-D-4Fpa-D-4Cpa-D-Leu-D-Arg-Mor] (H-[dPhe(4-F)][dPhe(4-Cl)][dL][dR]-Morpholide) |  |  |  | 1900 nM |  | 0.17 nM |
| H-D-CMP-D-Phe-D-Nle-D-Arg-NH(4Pic) [Peptide 43] |  |  |  |  | 2,500 |  |
| H-D-Phe-D-Phe-D-Acp-D-Arg-NH(4Pic) [Peptide 44] |  |  |  |  | 8,200 |  |
| H-D-Phe-D-Phe-D-CML-D-Oro-Mor [Peptide 46] |  |  |  |  | 14,000 |  |
| H-D-Phe-D-Phe-D-Hle-D-Arg-NH(4Pic) [Peptide 45] |  |  |  |  | 11,000 |  |
| H-D-Phe-D-Phe-D-Lcu-D-Dbu-Mor [Peptide 53] |  |  |  |  | 85,000 |  |
| H-D-Phe-D-Phe-D-Lcu-D-Dbu-NH(4Pic) [Peptide 52] |  |  |  |  | 92,000 |  |
| H-D-Phe-D-Phe-D-Lcu-D-Lys-Mor [Peptide 49] |  |  |  |  | 92,000 |  |
| H-D-Phe-D-Phe-D-Lcu-D-Lys-NH(4Pic) [Peptide 47] |  |  |  |  | 30,000 |  |
| H-D-Phe-D-Phe-D-Lcu-D-Lys-NHPr [Peptide 48] |  |  |  |  | 18,000 |  |
| H-D-Phe-D-Phe-D-Nle-D-Arg-Ecp [Peptide 42] | 0.06 mg/kg | 45.3% | 29.4% |  | 27,000 |  |
| H-D-Phe-D-Phe-D-Nle-D-Arg-NH-4-Ahz [Peptide 41] |  |  |  |  | 12,000 |  |
| H-D-Phe-D-Phe-D-Nle-D-Arg-NH-4Nhz [Peptide 40] |  |  |  |  | 3,800 |  |
| H-D-Phe-D-Phe-D-Nle-D-Har-Mor [Peptide 51] |  |  |  |  | 12,000 |  |
| H-D-Phe-D-Phe-D-Nle-D-Har-NH(4Pic) [Peptide 50] |  |  |  |  | 9,300 |  |
